For one assay, the target named is T1, 5‐HT2C receptor (Rattus norvegicus, UniProt P08909).
T1 construct: 5‐HT2C receptor membrane protein was extracted from rat hippocampus and a stably transfected HEK293 cell line; from tissue; host or cells: rat hippocampus
T1 sequence (P08909 33-460): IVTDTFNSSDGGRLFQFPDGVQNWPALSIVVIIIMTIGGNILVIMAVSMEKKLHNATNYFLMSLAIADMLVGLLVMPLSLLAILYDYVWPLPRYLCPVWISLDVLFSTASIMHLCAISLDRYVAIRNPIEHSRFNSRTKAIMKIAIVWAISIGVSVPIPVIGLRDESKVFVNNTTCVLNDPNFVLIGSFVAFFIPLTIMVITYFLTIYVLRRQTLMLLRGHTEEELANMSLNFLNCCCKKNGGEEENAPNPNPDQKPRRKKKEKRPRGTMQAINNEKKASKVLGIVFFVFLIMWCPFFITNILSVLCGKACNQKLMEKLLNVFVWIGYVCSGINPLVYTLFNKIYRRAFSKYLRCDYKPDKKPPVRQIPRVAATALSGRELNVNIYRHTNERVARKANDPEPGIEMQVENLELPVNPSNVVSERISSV
The experiment in a line: 5‐HT2C receptor binding assay ([3H]‐LSD competition). Conditions: mean ± SEM, three independent experiments. As for the experimental part:
Hippocampal membrane preparations were obtained using previously described methods. ^24 , ^25 , ^26 Briefly, rats were decapitated and their brains were rapidly removed. Next, the hippocampus was dissected and subsequently homogenized in 40 volumes of ice‐cold buffer (50 mM Tris‐HCl Buffer, pH 7.4) and then centrifuged at 40,000 × g at 4°C for 10 min. The particles were re‐suspended and centrifuged again. In order to remove endogenous monoamines, the final suspension was incubated at 37°C for 20 min and then centrifuged as usual. The final pellets were frozen at −80°C at once for up to 1 week.
Human MT1/MT2 receptor membrane proteins were obtained from Perkin‐Elmer (ES‐620 [MT1] and ES‐621 [MT2]). The stably transfected 5‐HT2C receptor HEK293 cell line was prepared using a nucleus‐cytoplasm‐membrane preparation kit (Applagin Technologies Inc.). Briefly, cells were harvested at 4°C, 110 00 × g and centrifugation for 5 min. Homogenize pellets in the assay buffer (50 mM Tris‐HCl buffer containing 120 mM NaCl and 5 mM KCl, pH 7.4) and then centrifuged twice at 4°C, 36,000 × g for 15 min. […]
Receptor membrane protein, 5‐HT2C (50 μl), was added to all the tubes. Non‐specific binding was determined by the presence of unlabeled 10 μM 5‐HT and pre‐reacted for 30 min. […] Finally, 1 ml of scintillation fluid was added and the radioactive intensity measured by liquid scintillation counting.

Another assay deals with T2, MT1 receptor (Homo sapiens, UniProt P48039).
T2 construct: purchased Perkin‐Elmer ES‐620
The experiment in a line: [35S]‐GTPγS binding assay, MT1. In kind it is biochemical. How it is done: This experiment was mentioned earlier. ^27 In short, HEK293 cell membrane stably expressing human 5‐HT2C receptors or rat hippocampal tissue membrane or MT1/MT2 receptors was re‐suspended in buffer (50 mmol/L Tris, 100 mmol/L NaCl, 5 mmol/L MgCl2·6H2O, 0.1 mmol/L EDTA‐Na2·6H2O, 0.2 mmol/L EGTA, pH 7.4) and incubated with the test compound (100 μM GDP, 0.2 nM [^35S]‐GTP, or [^3H]PIP) for 60 min at 28℃. At the end of the experiment, Whatman GF/C filters pre‐soaked with distilled water were used for rapid filtration followed by washing with 5 ml of ice‐cold Tris buffer. Determination of non‐specific binding in the presence of GTPγS and radioactivity was measured by liquid scintillation counting. Calculation of the concentration produces a half‐maximal effect (EC50) and the maximal increase above the baseline value.
Background: Binding of GTPγS marks nucleotide exchange on a G protein.

The subject of a further assay is CUS rats. As to the kind of experiment: Novelty‐suppressed feeding test in the CUS model. In kind it is in vivo. Conditions: chronic, 5, 10, 20 and 40 mg/kg, vs. vehicle‐stressed rats. As for the experimental part:
In order to further examine the antidepressant effects of GW117, chronic unpredictable stress (CUS) model was utilized; the methods were as described before. ^29 , ^31 After 1 week of training, rats underwent sucrose training of 48 h. After training, a sucrose baseline test was performed. […] Gastric gavage was given 1 h before the stress (08:00–09:00). Except for the non‐stressed group, all rats were stimulated by a series of stressors. stress methods included the following: fast on food and water (24 h), moisture cage (150 g sawdust bedding in 200 ml water), overnight illumination, low‐intensity strobe illumination (100 flashes/min), forced swimming (5 min at 10℃), white noise (110 dB), tail pinch (1 cm from tail root, 6 min), 45℃ cage tilt, and restraint (1–2 h). Stressors need to be used continuously and randomly. Non‐stressed rats received free food and water, but were required to fast for 14 h before sucrose preference test. After 4 weeks of stress, the sucrose preference test (SPT) (on day 25), open field test (OFT) (on day 28), and novelty‐suppressed feeding (NSF) test (on day 29) were carried out. […]

The test system of a further assay is mice. The experiment in a line: Learned helplessness paradigm in mice. The format is in vivo, ICR mice. Conditions: sub‐chronic, fourth day after inescapable shock training, vs stress. As for the experimental part:
For 4 consecutive days, mice were putted into the shuttle box device (40 × 10 × 13 cm), the device was splited into two compartments, and mice could free access. In the IS group, each mouse received 360 inescapable shocks (current intensity 0.30 mA, duration 2 s, 3‐13 s variable interval, about 1 h) over four consecutive training days. Animals in the NIS group underwent the same handling without receiving the foot shocks. 10 trials were conducted on mice to screen helpless, each of which includes conditioned stimulation period (3‐s lamp on), non‐conditioned stimulation period (3‐s lamp +shock), and interval period (without any stimulus, 25 s). […] The EF values were balanced for each group in the experiment. Using Graphic State software (Coulbourn Instruments Inc.,) recorded the number of escape failures and the latency to escape.

What is called Ki is a measure of affinity in units of concentration, obtained from inhibition or displacement. Higher therefore signals lower affinity. In general, Emax refers to the greatest response seen or fitted, relative to the assay's reference. In general, EC50 refers to the concentration needed to bring the measured effect to its halfway point.

T2 sequence (P48039 whole entry): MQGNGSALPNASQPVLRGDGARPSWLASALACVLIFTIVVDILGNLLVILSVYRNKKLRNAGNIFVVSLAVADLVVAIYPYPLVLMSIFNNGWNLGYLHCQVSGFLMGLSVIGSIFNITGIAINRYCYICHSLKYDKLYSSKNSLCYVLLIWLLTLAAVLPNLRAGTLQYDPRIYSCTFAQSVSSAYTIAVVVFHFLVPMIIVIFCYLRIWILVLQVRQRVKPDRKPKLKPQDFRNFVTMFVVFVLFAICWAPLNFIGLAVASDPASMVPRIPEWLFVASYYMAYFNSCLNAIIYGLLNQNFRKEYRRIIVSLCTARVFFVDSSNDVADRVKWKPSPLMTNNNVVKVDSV

For `[2H]C([2H])([2H])Oc1cc2c(CCNC(C)=O)cccc2cc1Cl` [GW117], the inhibition constant Ki at 5‐HT2C receptor was determined as 0.32 ± 0.08 nM. The “character of effect on MT1 receptor” value at MT1 receptor ([35S]‐GTPγS binding) is listed as “full agonist”. Further, the maximal effect (Emax) on MT1 receptor ([35S]‐GTPγS binding, read-out: maximal increase over basal binding (% Emax), MT1 receptor) was 104 ± 7.34%. Besides, the concentration for a half-maximal effect (EC50) on MT1 receptor (read-out: EC50 of stimulation of specific [35S]‐GTPγS binding, MT1 receptor) is 2.49 nM. For the same compound, in the assay with CUS rats, the “latency to begin eating” value is listed as “significantly reduced the latency to begin eating”. In addition, the “number of failures to escape” value in the assay with mice (40 mg/kg) was “significantly decreased the number of failures to escape”. Besides, the escape latency entry in the assay on mice (20 and 40 mg/kg) was “decreased the escape latency”.

Values taken from publication PMC8111499, “GW117: A novel serotonin (5‐HT2C) receptor antagonist and melatonin (MT1/MT2) receptor agonist with potential antidepressant‐like activity in rodents” (CNS Neuroscience & Therapeutics, 2021).
